“Also recorded” adds a separate entry of the source.
Legend:
[1] = in vivo; cited from earlier work
MCF-7 cells [2] = details: human, 72 h, 50 nM
Description: Doxorubicin is a commonly used chemotherapy against breast cancer.
Media and treatments were changed once after 48 hrs. After 72 hrs of incubation at 37° C., 5% CO2, the cells were cultured for four hours with 10% MIT reagent (5 mg/ml; Sigma-Aldrich). The medium was aspirated, and the cells were dissolved by dimethyl sulfoxide (DMSO). Absorbance of the formazan product was measured by an enzyme-linked immunosorbent assay reader.

[3] = tested on: cAMP levels in MCF-7 cells; assay: cAMP radioimmunoassay; type: cell-based; details: 5 minutes; for cAMP accumulation / production: exendin-4 5 nM, GLP-1 5 nM, exendin (9-39) 100 nM, 2′5′-dideoxy adenosine 30 μM (60 minutes preincubation)
Description: cAMP measurements: For cAMP measurement, a radioimmunoassay was carried out as follows: cells and 100 μl media were snap frozen in liquid nitrogen, thawed and diluted in buffer acetate. […] Bound cAMP was precipitated and counted in a γ-counter, and concentration determined using a standard curve and positive controls.

[4] = tested on: CREB, p38, ERK1/2, AKT, AMPK in MCF-7 cells; assay: Western blot of signaling pathways (CREB, p38, ERK1/2, AKT, AMPK, ACC); type: cell-based; details: for AMPK and ACC phosphorylation (AMP kinase activity): comparable to the AMPK activator AICAR
Description: 50 μg protein extracts were loaded on 10% polyacrylamide gels, separated electrophoretically and blotted from the gel onto nitrocellulose membrane (Schleicher & Schuell Bioscience GmbH, Dassel, Del.). The membranes were then immunoblotted with the indicated antibodies. Band intensities were quantified using ImageJ software. Colony assays: 200 cells/well were plated on 12-well plate. […] Medium was replaced twice a week and at day 14, the cells were stained using crystal violet. Quantification of the results was performed using ImageJ.

MCF-7 cells [5] = assay: cells; type: cell-based; details: Homo sapiens, MCF7, read-out: inhibition of cell viability
Source text: Human embryonic kidney HEK-293 and primary liver cells were used as controls.
Medium was replaced once after 48 hrs.

[6] = cited from earlier work

Molecule	crossing of the blood-brain barrier [1]	cAMP accumulation / production [3]	p38 MAPK activation / phosphorylation [4]	CREB phosphorylation ([4]; 15 minutes)	AMPK and ACC phosphorylation (AMP kinase activity) [4]	further results
COc1cccc2c1C(=O)c1c(O)c3c(c(O)c1C2=O)C[C@@](O)(C(=O)CO)C[C@@H]3O[C@H]1C[C@H](N)[C@H](O)[C@H](C)O1 [doxorubicin]	does not cross the blood-brain barrier	–	–	–	–	reduction of viability (MCF-7 cells [2]): 20%
exendin(9-39)	–	increased cAMP accumulation similarly to exendin-4 and GLP-1	enhanced	enhanced	phosphorylated	–
C=C[C@@]1(C)CC(=O)[C@]2(O)[C@@]3(C)[C@@H](O)CCC(C)(C)[C@@H]3[C@H](O)[C@H](OC(C)=O)[C@@]2(C)O1 [forskolin]	–	–	–	–	–	cytotoxicity at 1 µM (MCF-7 cells [5]): 60%; elevation of cAMP levels ([3]; forskolin 1 μM): 6 fold
N[C@@H](CC(=O)N1CCn2c(nnc2C(F)(F)F)C1)Cc1cc(F)c(F)cc1F [Sitagliptin, (2R)-4-oxo-4-[3-(trifluoromethyl)-5,6-dihydro[1,2,4]triazolo[4,3-a]pyrazin-7(8H)-yl]-1-(2,4,5-trifluorophenyl)butan-2-amine]	–	–	–	–	–	eliminated without being metabolized ([6]; human subjects, via the kidney): 74%; half life ([6]; in vivo): 8 to 12 h
Glucagon-like peptide 1 [GLP-1]	able to cross the blood-brain barrier	elevated; also recorded: similar	induced; also recorded: activated	induced; also recorded: CREB phosphorylation	phosphorylated	ERK1/2 and AKT pathways ([4]; 15 minutes): Neither GLP-1 nor exendin-4 affected; also recorded: neither ERK1/2 nor AKT were affected
C[C@H]1O[C@@H](n2cnc3c(N)ncnc32)C[C@@H]1O [ddA, 2′5′ dideoxy-adenosine]	–	inhibited	–	–	–	–

Reference: patent US20110046071A1 (TEL HASHOMER MEDICAL RESEARCH INFRASTRUCTURE AND SERVICES …, priority 2008, published 2011)
